Data published in ChEMBL document CHEMBL4342488, “Structure-Activity Relationship Study of Covalent Pan-phosphatidylinositol 5-Phosphate 4-Kinase Inhibitors” (ACS Med Chem Lett, 2020).
Values belong to the molecule of their own block, whether it stands above or below them.

Tests used:
[1] = molecular target: T1, Phosphatidylinositol 5-phosphate 4-kinase type-2 beta (Homo sapiens, UniProt P78356); experiment: Inhibition of PI5P4Kbeta (unknown origin) incubated for 15 mins in presence of ATP by ADP-Glo assay
T1 sequence (P78356 whole entry): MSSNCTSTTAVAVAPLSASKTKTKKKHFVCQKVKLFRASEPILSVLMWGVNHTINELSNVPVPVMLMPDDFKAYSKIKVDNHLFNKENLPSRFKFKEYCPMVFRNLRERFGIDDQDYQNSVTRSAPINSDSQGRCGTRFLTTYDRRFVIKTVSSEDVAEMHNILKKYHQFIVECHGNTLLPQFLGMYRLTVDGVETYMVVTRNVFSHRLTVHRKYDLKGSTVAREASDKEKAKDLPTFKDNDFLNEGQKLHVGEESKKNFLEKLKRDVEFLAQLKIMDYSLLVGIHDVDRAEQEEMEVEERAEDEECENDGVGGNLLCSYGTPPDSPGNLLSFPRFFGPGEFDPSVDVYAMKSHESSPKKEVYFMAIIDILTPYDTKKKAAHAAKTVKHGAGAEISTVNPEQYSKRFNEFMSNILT

[2] = molecular target: T2, Phosphatidylinositol 5-phosphate 4-kinase type-2 alpha (Homo sapiens, UniProt P48426); experiment: Inhibition of PI5P4Kalpha (unknown origin) incubated for 15 mins in presence of ATP by ADP-Glo assay
T2 sequence (P48426 whole entry): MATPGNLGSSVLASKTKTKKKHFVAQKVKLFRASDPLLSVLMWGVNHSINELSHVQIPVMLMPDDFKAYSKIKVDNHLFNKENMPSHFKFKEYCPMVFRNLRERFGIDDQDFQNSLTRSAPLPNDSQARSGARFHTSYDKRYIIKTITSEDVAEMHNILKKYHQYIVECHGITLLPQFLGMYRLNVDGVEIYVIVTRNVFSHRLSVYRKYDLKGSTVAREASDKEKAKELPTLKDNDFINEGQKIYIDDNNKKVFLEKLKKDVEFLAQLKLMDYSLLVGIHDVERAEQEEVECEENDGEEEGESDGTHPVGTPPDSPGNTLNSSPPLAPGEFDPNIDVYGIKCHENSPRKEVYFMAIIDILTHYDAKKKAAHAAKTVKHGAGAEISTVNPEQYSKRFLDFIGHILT

[3] = molecular target: T3, Phosphatidylinositol 5-phosphate 4-kinase type-2 gamma (Homo sapiens, UniProt Q8TBX8); experiment: Inhibition of PI5P4Kgamma (unknown origin)
T3 sequence (Q8TBX8 whole entry): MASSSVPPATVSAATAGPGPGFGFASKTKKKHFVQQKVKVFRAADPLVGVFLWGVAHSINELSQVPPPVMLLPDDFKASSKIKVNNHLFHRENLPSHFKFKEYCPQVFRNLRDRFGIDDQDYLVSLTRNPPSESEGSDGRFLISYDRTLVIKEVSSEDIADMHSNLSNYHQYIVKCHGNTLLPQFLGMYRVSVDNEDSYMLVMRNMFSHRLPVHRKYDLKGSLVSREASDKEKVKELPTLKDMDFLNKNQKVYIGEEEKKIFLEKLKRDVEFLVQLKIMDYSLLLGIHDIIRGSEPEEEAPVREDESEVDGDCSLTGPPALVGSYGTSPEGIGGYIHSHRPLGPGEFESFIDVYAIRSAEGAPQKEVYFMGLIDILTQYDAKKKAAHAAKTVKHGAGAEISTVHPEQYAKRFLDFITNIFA

IC50 [1]: Not Active | IC50 [2]: Not Active
SMILES: CN(C)C/C=C/C(=O)Nc1cccc(NC(=O)N2CCCC(Nc3cc(-c4cnc5[nH]ccc5c4)ncn3)C2)c1 (stereo unspecified)

IC50 [3]: 15.8 µM
SMILES: Cn1nnnc1Sc1ncnc2scc(-c3cccc(S(C)(=O)=O)c3)c12

IC50 ([1]; read-out: IC50): 9.9 µM | IC50 ([2]; read-out: IC50): 1.34 µM
SMILES: Cc1ccc(-n2ccc3c(Nc4cccc(NC(=O)c5ccc(NC(=O)/C=C/CN(C)C)cc5)c4)ncnc32)cc1

IC50 [3]: 1 µM
SMILES: FC(F)(F)c1ccccc1-c1nc(NCc2cccs2)c2ccccc2n1
